Data published in PubChem BioAssay (NCI).
Where “and” joins values, the source holds several entries; their conditions need not be identical. Equal entries are not always repeated.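 In this assay, cells in 96-well plates receive the compound at five concentrations for 48 hours. Endpoints are linearly interpolated between the surrounding concentrations. GI50: concentration for 50% inhibition of growth. TGI: concentration producing complete growth inhibition.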

Tests used:
Assay in all cases: growth of human tumour cells (NCI), 48 h
HCC-2998 colon = tested on: HCC-2998 colon
U251 CNS = tested on: U251 CNS
SNB-19 CNS = tested on: SNB-19 CNS
SR leukemia = tested on: SR leukemia
CCRF-CEM leukemia = tested on: CCRF-CEM leukemia
MOLT-4 leukemia = tested on: MOLT-4 leukemia
T-47D breast = tested on: T-47D breast
NCI-H23 lung = tested on: NCI-H23 lung

SMILES | GI50 (HCC-2998 colon) | TGI (HCC-2998 colon) | GI50 (U251 CNS) | TGI (U251 CNS) | GI50 (SNB-19 CNS) | TGI (SNB-19 CNS) | GI50 (SR leukemia) | TGI (SR leukemia) | GI50 (CCRF-CEM leukemia) | TGI (CCRF-CEM leukemia) | GI50 (MOLT-4 leukemia) | TGI (MOLT-4 leukemia) | GI50 (T-47D breast) | TGI (T-47D breast) | GI50 (NCI-H23 lung) | TGI (NCI-H23 lung)
N#CSCc1ccc(Cl)c(CSC#N)c1 | 6.61 µM | 34.5 µM | 9.12 µM | 28.4 µM | 10.5 µM | > 100 µM | 0.0642 µM | 19.2 µM | 0.103 µM | 23.6 µM | 0.109 µM | 53.5 µM | 15.7 µM | 51.8 µM | 0.913 µM | 44.5 µM
Nc1ccccc1C#C/C=C\C#Cc1cccc(O)c1 | 3.98 µM | 9.08 µM | 4.09 µM | 17.1 µM | 17.1 µM | > 55.7 µM | 1.55 µM | 6.13 µM | 8.12 µM | > 44 µM | 3.21 µM | 23.7 µM | 7.3 µM | > 60.8 µM | 2.44 µM | 9.38 µM
NC(=O)c1ccc(-c2nc(-c3ccc4c(c3)OCO4)c(-c3ccccn3)[nH]2)cc1 | > 25 µM and 30.9 µM | > 100 µM | > 25 µM and 44.5 µM | > 100 µM | > 25 µM and 54.6 µM | > 100 µM | > 25 µM and 20.4 µM | > 100 µM | > 25 µM and 38.4 µM | > 100 µM | > 25 µM and 38.8 µM | > 100 µM | > 25 µM and 21.8 µM | > 100 µM | > 25 µM and 46.3 µM | > 100 µM
Nc1c(C(=O)c2cccc(-c3cccnc3)c2)cnn1-c1ccc(F)cc1F | 9.43 µM | > 25 µM | 6.79 µM | > 25 µM | 11.7 µM | > 25 µM | 0.823 µM | > 6.83 µM | 10.2 µM | > 25 µM | 7.85 µM | > 25 µM | 1.57 µM | > 25 µM | 4.41 µM | > 25 µM
CN(C)c1ccc(C(=NO)c2ccc(N(C)C)cc2)cc1 | 8.06 µM | > 100 µM | 2.68 µM | > 100 µM | 4.04 µM | > 100 µM | 0.32 µM | > 100 µM | 3.27 µM | > 100 µM | 3.02 µM | > 100 µM | 5.59 µM | > 100 µM | 5.42 µM | > 100 µM
COC(=N)c1c(N)[n+]([O-])c2ccc(F)cc2[n+]1[O-] | > 100 µM | > 100 µM | > 100 µM | > 100 µM | > 100 µM | > 100 µM | 47.9 µM | > 100 µM | > 100 µM | > 100 µM | > 100 µM | > 100 µM | > 100 µM | > 100 µM | > 100 µM | > 100 µM
CCOC(=O)c1cc2c(n1Cc1cc(OC)c(OC)c(OC)c1)-c1oncc1CCC2 | 0.335 µM | 5.17 µM | 0.214 µM | 5.01 µM | 0.604 µM | > 100 µM | 0.0464 µM | 5.5 µM | 0.318 µM | 5.38 µM | 0.406 µM | > 44.8 µM | 0.373 µM | 53.4 µM | 0.388 µM | > 43.2 µM
Cc1ccc(-c2nc3nc(-c4ccccc4)nc(N4CCNCC4)c3o2)cc1 | 1.4 µM | 2.86 µM | 0.181 µM | 0.338 µM | 1.06 µM | 2.58 µM | 0.223 µM | 0.611 µM | 0.276 µM | 0.729 µM | 0.238 µM | 0.573 µM | 0.832 µM | 2.6 µM | 1.8 µM | 3.53 µM
Cn1cccc1-c1cc(-c2ccc(Br)cc2)[nH]c(=O)c1C#N | > 100 µM | > 100 µM | > 100 µM | > 100 µM | > 100 µM | > 100 µM | > 100 µM | > 100 µM | > 100 µM | > 100 µM | 57.1 µM | > 100 µM | > 100 µM | > 100 µM | > 100 µM | > 100 µM
COC(=O)Nc1nc2ccc(Oc3cccc(NC(=O)Nc4cc(C(F)(F)F)ccc4F)c3)cc2[nH]1 | 13.2 µM | > 25 µM | 15.4 µM | > 25 µM | > 25 µM | > 25 µM | 10.2 µM | > 25 µM | 10.1 µM | > 25 µM | 15.8 µM | > 25 µM | 8.64 µM | > 25 µM | 11.3 µM | > 25 µM
CC(=O)[O][Sn]([CH2]c1ccccc1)([CH2]c1ccccc1)[CH2]c1ccccc1 | > 6.73 µM | > 10 µM | > 10 µM | > 10 µM | > 10 µM | > 10 µM | 3.76 µM | > 4.64 µM | > 4.58 µM | > 6.27 µM | > 10 µM | > 10 µM | > 10 µM | > 10 µM | > 5.98 µM | > 7.83 µM
